These compounds were tested against human activated kallikrein enzyme (Homo sapiens, UniProt P03952) (assay: Inhibition of human activated kallikrein enzyme, fluorogenic peptide substrate assay (500 pM enzyme format)). Details: 500 pM activated kallikrein, 300 μM PFR-AMC substrate, 30 min preincubation, 10 min reaction, room temperature; read-out: Primary Dose Response Assay: Average EC50.
Type: biochemical
Experimental: Compounds were evaluated for inhibition of the human activated kallikrein enzyme in two formats of an assay employing a fluorogenic peptide substrate. In one assay format, the concentrations of reagents were as follows: 20 mM Tris pH 7.5, 1 mM EDTA, 150 mM sodium chloride, 0.1% PEG-400, 0.1% Triton X-100, 500 pM activated kallikrein enzyme, 300 μM Pro-Phe-Arg-7-amido-4-methylcoumarin (PFR-AMC) substrate. Prior to reaction initiation with substrate, enzyme and inhibitors were preincubated for 30 min at room temperature. After initiation with substrate, reactions were incubated for 10 min at room temperature and fluorescence emission at 460 nm from 380 nm excitation measured with a microplate reader. In another assay format, the concentrations of reagents were as follows: 20 mM Tris pH 7.5, 1 mM EDTA, 150 mM sodium chloride, 0.1% PEG-400, 0.1% Triton X-100, 5 pM activated kallikrein enzyme, 300 uM PFR-AMC substrate. Prior to reaction initiation with substrate, enzyme and inhibitors were preincubated for 30 min at room temperature. After initiation with substrate, reactions were incubated for 18 hr at room temperature and fluorescence emission at 460 nm from 380 nm excitation measured with a microplate reader.
Table 1 provides the results of the assay in the format with 500 pM activated kallikrein assay. For the compounds listed in Table 1, the EC50 values are reported according to the following ranges: A≤5.0 nM; 5.0 nM<B≤50 nM; 50 nM<C≤500 nM; 500 nM<D≤9000 nM; 9000 nM<E.

Chain of human activated kallikrein enzyme (P03952 391-638 limits assumed): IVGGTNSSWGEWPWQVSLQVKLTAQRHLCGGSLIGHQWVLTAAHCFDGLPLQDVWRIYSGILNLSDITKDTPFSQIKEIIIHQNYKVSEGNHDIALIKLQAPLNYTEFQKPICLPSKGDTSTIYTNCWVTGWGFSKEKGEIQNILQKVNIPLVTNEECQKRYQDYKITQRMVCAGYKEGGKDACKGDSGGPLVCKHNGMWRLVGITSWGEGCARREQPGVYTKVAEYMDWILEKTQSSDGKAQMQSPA
Chain of human activated kallikrein enzyme (P03952 20-390 partner limits assumed): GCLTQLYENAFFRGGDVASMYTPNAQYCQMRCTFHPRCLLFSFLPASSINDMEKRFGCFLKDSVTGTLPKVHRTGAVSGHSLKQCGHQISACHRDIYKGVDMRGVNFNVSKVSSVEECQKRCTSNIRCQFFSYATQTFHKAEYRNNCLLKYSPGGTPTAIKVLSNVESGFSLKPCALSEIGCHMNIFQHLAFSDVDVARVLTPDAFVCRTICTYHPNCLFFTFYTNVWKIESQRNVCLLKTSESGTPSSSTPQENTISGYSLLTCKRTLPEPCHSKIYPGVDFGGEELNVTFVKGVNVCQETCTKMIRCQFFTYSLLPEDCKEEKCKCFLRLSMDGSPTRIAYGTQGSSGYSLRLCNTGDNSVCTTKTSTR

| EC50 [nM] | SMILES |
| --- | --- |
| 500 to 9000 | COc1ccc(CNc2cc(NCc3cn4cc(C5CC5)ccc4n3)ncn2)c(OC)c1 [Example 136, N^4-((6-cyclopropylimidazo[1,2-a]pyridin-2-yl)methyl)-N^6-(2,4-dimethoxybenzyl)pyrimidine-4,6-diamine] |
| 50 to 500 | O=C(Cc1ncn2ccc(Cl)cc12)Nc1cncnc1NCc1cn2cc(C3CC3)ccc2n1 [Example 42, 2-(7-chloroimidazo[1,5-a]pyridin-1-yl)-N-(4-(((6-cyclopropylimidazo[1,2-a]pyridin-2-yl)methyl)amino)pyrimidin-5-yl)acetamide] |
| 500 to 9000 | O=C(CC1(c2cccc(Cl)c2)CC1)Nc1cc(NCc2cn3cc(C4CC4)ccc3n2)ccn1 [Example 126, 2-(1-(3-chlorophenyl)cyclopropyl)-N-(4-(((6-cyclopropylimidazo[1,2-a]pyridin-2-yl)methyl)amino)pyridin-2-yl)acetamide] |
| ≤ 5 | O=C(Cc1ncn2ccc(Cl)cc12)Nc1cc(OCc2cn3cc(C4CC4)ccc3n2)cnn1 [Example 32, 2-(7-chloroimidazo[1,5-a]pyridin-1-yl)-N-(5-((6-cyclopropylimidazo[1,2-a]pyridin-2-yl)methoxy)pyridazin-3-yl)acetamide] |
| 5 to 50 | O=C(NCc1ncn2ccc(Cl)cc12)c1cnnc(OCc2cn3cc(C4CC4)ccc3n2)c1 [Example 66, N-((7-chloroimidazo[1,5-a]pyridin-1-yl)methyl)-6-((6-cyclopropylimidazo[1,2-a]pyridin-2-yl)methoxy)pyridazine-4-carboxamide] |
| 5 to 50 | CC(C(=O)Nc1cc(NCc2cn3cc(C4CC4)ccc3n2)ncn1)c1ncn2ccc(Cl)cc12 (stereo not drawn) [Example 4, 2-(7-chloroimidazo[1,5-a]pyridin-1-yl)-N-(6-(((6-cyclopropylimidazo[1,2-a]pyridin-2-yl)methyl)amino)pyrimidin-4-yl)propanamide] |
| 5 to 50 | N#Cc1cc(C2CC2)cn2cc(COc3cc(NC(=O)Cc4ncn5ccc(Cl)cc45)ncn3)nc12 [Example 22, 2-(7-chloroimidazo[1,5-a]pyridin-1-yl)-N-(6-((8-cyano-6-cyclopropylimidazo[1,2-a]pyridin-2-yl)methoxy)pyrimidin-4-yl)acetamide] |
| 500 to 9000 | O=S(=O)(Nc1cc(NCc2cn3cc(C4CC4)ccc3n2)ncn1)C1CC1c1cccc(Cl)c1 (stereo not drawn) [Example 67, 2-(3-chlorophenyl)-N-(6-(((6-cyclopropylimidazo[1,2-a]pyridin-2-yl)methyl)amino)pyrimidin-4-yl)cyclopropane-1-sulfonamide] |
| ≤ 5 | Cc1cc(CN)cc(C)c1CNc1cc(OCc2cn3cc(C4CC4)ccc3n2)ncn1 [Example 108, N-(4-(aminomethyl)-2,6-dimethylbenzyl)-6-((6-cyclopropylimidazo[1,2-a]pyridin-2-yl)methoxy)pyrimidin-4-amine] |
| 500 to 9000 | N#Cc1ccc(Cl)cc1CC(=O)Nc1cc(NCc2cn3cc(C4CC4)ccc3n2)ncn1 [Example 2, 2-(5-chloro-2-cyanophenyl)-N-(6-(((6-cyclopropylimidazo[1,2-a]pyridin-2-yl)methyl)amino)pyrimidin-4-yl)acetamide] |

Further lines, the compound ahead of its results:

| SMILES | EC50 [nM] |
| --- | --- |
| CCOC(=O)CCc1nc(NCc2c(C)cc(C(=N)NC(=O)OCC)cc2C)cc(OCc2cn3cc(C4CC4)ccc3n2)n1 [Example 77, ethyl 3-(4-((6-cyclopropylimidazo[1,2-a]pyridin-2-yl)methoxy)-6-((4-(N-(ethoxycarbonyl)carbamimidoyl)-2,6-dimethylbenzyl)amino)pyrimidin-2-yl)propanoate] | 5 to 50 |
| CCOC(=O)NC(=N)c1cc(C)c(CNc2cc(OCc3cn4cc(C5CC5)ccc4n3)nc(C(=O)O)n2)c(C)c1 [Example 88, 4-((6-cyclopropylimidazo[1,2-a]pyridin-2-yl)methoxy)-6-(4-(N-(ethoxycarbonyl)carbamimidoyl)-2,6-dimethylbenzylamino)pyrimidine-2-carboxylic acid] | ≤ 5 |
| CC(C(=O)Nc1cc(NCc2cn3cc(C4CC4)ccc3n2)ncn1)N(C)c1cccc(Cl)c1 (stereo not drawn) [Example 9, 2-((3-chlorophenyl)(methyl)amino)-N-(6-(((6-cyclopropylimidazo[1,2-a]pyridin-2-yl)methyl)amino)pyrimidin-4-yl)propanamide] | 500 to 9000 |
| O=c1c(NCc2cn3cc(C4CC4)ccc3n2)c(NCc2ncn3ccc(Cl)cc23)c1=O [Example 68, 3-(((7-chloroimidazo[1,5-a]pyridin-1-yl)methyl)amino)-4-(((6-cyclopropylimidazo[1,2-a]pyridin-2-yl)methyl)amino)cyclobut-3-ene-1,2-dione] | 5 to 50 |
| CCOC(=O)c1nc(NCc2c(C)cc(C(=N)NO)cc2C)cc(OCc2cn3cc(C4CC4)ccc3n2)n1 [Example 81, ethyl 4-((6-cyclopropylimidazo[1,2-a]pyridin-2-yl)methoxy)-6-((4-(N-hydroxycarbamimidoyl)-2,6-dimethylbenzyl)amino)pyrimidine-2-carboxylate] | 50 to 500 |
| O=C(Cn1nnc2ccc(Cl)cc21)Nc1cc(NCc2cn3cc(C4CC4)ccc3n2)ccn1 [Example 27, 2-(6-chloro-1H-benzo[d][1,2,3]triazol-1-yl)-N-(4-(((6-cyclopropylimidazo[1,2-a]pyridin-2-yl)methyl)amino)pyridin-2-yl)acetamide] | 500 to 9000 |
| CCCCCCOC(=O)NC(=N)c1cc(C)c(CNc2cc(OCc3cn4cc(C5CC5)ccc4n3)nc(CCC(=O)OCC)n2)c(C)c1 [Example 75, ethyl 3-(4-((6-cyclopropylimidazo[1,2-a]pyridin-2-yl)methoxy)-6-((4-(N-((hexyloxy)carbonyl)carbamimidoyl)-2,6-dimethylbenzyl)amino)pyrimidin-2-yl)propanoate] | 50 to 500 |
| O=C(Cc1ncn2ccc(Cl)cc12)Nc1cc(NCc2cn3cc(C4CC4)ccc3n2)nc(C(=O)O)n1 [Example 21, 4-(2-(7-chloroimidazo[1,5-a]pyridin-1-yl)acetamido)-6-(((6-cyclopropylimidazo[1,2-a]pyridin-2-yl)methyl)amino)pyrimidine-2-carboxylic acid] | ≤ 5 |
| O=C(Cc1ncn2ccc(Cl)cc12)Nc1cc(OCc2cn3cc(C4CC4)ccc3n2)ccn1 [Example 23, 2-(7-chloroimidazo[1,5-a]pyridin-1-yl)-N-(4-((6-cyclopropylimidazo[1,2-a]pyridin-2-yl)methoxy)pyridin-2-yl)acetamide] | 5 to 50 |
| O=C(Cn1cc(Cl)ccc1=O)Nc1cc(NCc2cn3cc(C4CC4)ccc3n2)ncn1 [Example 119, 2-(5-chloro-2-oxopyridin-1 (2H)-yl)-N-(6-(((6-cyclopropylimidazo[1,2-a]pyridin-2-yl)methyl)amino)pyrimidin-4-yl)acetamide] | > 9000 |
| Cc1cc(C(=N)N)cc(C)c1CNc1cc(OCc2cn3cc(C4CC4)ccc3n2)nc(C(=O)O)n1 [Example 85, 4-((4-carbamimidoyl-2,6-dimethylbenzyl)amino)-6-((6-cyclopropylimidazo[1,2-a]pyridin-2-yl)methoxy)pyrimidine-2-carboxylic acid] | ≤ 5 |
| CC(O)(C(=O)Nc1cc(NCc2cn3cc(C4CC4)ccc3n2)ncn1)c1ncn2ccc(Cl)c(F)c12 (stereo not drawn) [Example 106, 2-(7-chloro-8-fluoroimidazo[1,5-a]pyridin-1-yl)-N-(6-(((6-cyclopropylimidazo[1,2-a]pyridin-2-yl)methyl)amino)pyrimidin-4-yl)-2-hydroxypropanamide] | > 9000 |
| Cc1cc(C(=N)NO)cc(C)c1CNc1cc(OCc2cn3cc(C4CC4)ccc3n2)nc(C(=O)O)n1 [Example 84, 4-((6-cyclopropylimidazo[1,2-a]pyridin-2-yl)methoxy)-6-((4-(N-hydroxycarbamimidoyl)-2,6-dimethylbenzyl)amino)pyrimidine-2-carboxylic acid] | 5 to 50 |
| COc1ccc(-n2cnnn2)c(CNc2cc(C(F)(F)c3cn4cc(C5CC5)ccc4n3)ncn2)c1F [Example 62, 6-((6-cyclopropylimidazo[1,2-a]pyridin-2-yl)difluoromethyl)-N-(2-fluoro-3-methoxy-6-(1H-tetrazol-1-yl)benzyl)pyrimidin-4-amine] | 500 to 9000 |
| N#C/N=C(\NCc1cccc(Cl)c1)Nc1cc(NCc2cn3cc(C4CC4)ccc3n2)ccn1 [Example 128, (E)-1-(3-chlorobenzyl)-2-cyano-3-(4-(((6-cyclopropylimidazo[1,2-a]pyridin-2-yl)methyl)amino)pyridin-2-yl)guanidine] | 500 to 9000 |
| COc1ccc2oc(=O)n(CC(=O)Nc3cc(NCc4cn5cc(C6CC6)ccc5n4)ncn3)c2c1 [Example 122, N-(6-(((6-cyclopropylimidazo[1,2-a]pyridin-2-yl)methyl)amino)pyrimidin-4-yl)-2-(5-methoxy-2-oxobenzo[d]oxazol-3 (2H)-yl)acetamide] | > 9000 |
| O=C(O)CCc1cc(C2CC2)cn2cc(CNc3cc(NC(=O)Cc4ncn5ccc(Cl)cc45)ncn3)nc12 [Example 39, 3-(2-(((6-(2-(7-chloroimidazo[1,5-a]pyridin-1-yl)acetamido)pyrimidin-4-yl)amino)methyl)-6-cyclopropylimidazo[1,2-a]pyridin-8-yl)propanoic acid] | ≤ 5 |

Reference: patent publication US20240382482A1, “PLASMA KALLIKREIN INHIBITORS” (TAKEDA PHARMACEUTICAL COMPANY LIMITED, priority 2021, published 2024)
